Assay [1] relates to CAL-85-1 (Breast Carcinoma). The experiment in a line: Bliss excess, mean over the matrix (fraction); higher = more synergy. Put shortly: (§1)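 Cell lines grown in DMEM/F12 or RPMI with 10% FBS were plated in 1536-well plates and held 24 hours at 37°C, 5% CO2 before 72 hours of exposure to two-drug dose matrices, with DMSO typically at 0.2%. CellTiter-Glo 2.0 luminescence gave viability, which was converted to inhibition. Vehicle wells were set to 0 and blank wells to 1. Combination Emax is the second-highest inhibition in the matrix, and Bliss excess is the observed combination effect minus the expected EA + EB − EA·EB, where EA and EB are the single-agent effects.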

Assay [2] has as its system GCIY (Gastric Carcinoma). Described as above. The method, boiled down:
as §1

Assay [3] relates to HT-144 (Melanoma). The description is as above. The method, boiled down:
as §1

Assay [4] concerns IGROV-1 (Ovarian Carcinoma). The assay is described as above. Put shortly:
as §1

Assay [5] concerns JURL-MK1 (Chronic Myelogenous Leukemia). Described as above. The method, boiled down:
as §1

In assay [6] the test system is MG-63 (Osteosarcoma). The assay is described as above. The method, boiled down: as §1
The subject of assay [7] is NCI-H1435 (Non-Small Cell Lung Carcinoma). The assay is described as above. Put shortly:
as §1

Assay [8] deals with NCI-H2170 (Squamous Cell Lung Carcinoma). The assay is described as above. Put shortly: as §1
Assay [9] deals with NTERA-2-cl-D1 (Other Solid Carcinomas). The description is as above. Put shortly: as §1
For assay [10], the system named is OCI-M1 (Acute Myeloid Leukemia). Described as above. The method, boiled down:
as §1

For assay [11], the system named is RS4-11 (B-Lymphoblastic Leukemia). Described as above. The method, boiled down:
as §1

For assay [12], the system named is SCC90 (Head and Neck Carcinoma). Described as above. Put shortly:
as §1

Assay [13] relates to TK (B-Cell Non-Hodgkin's Lymphoma). Described as above. The method, boiled down: as §1
Assay [14] deals with BC-1 (B-Cell Non-Hodgkin's Lymphoma). The experiment in a line: combination Emax (second highest fraction inhibited in the dose matrix, 72 h); higher = more inhibition; extreme values may be limits of the assay. Put shortly:
as §1

Assay [15] deals with Daudi (Burkitt's Lymphoma). The description is as above. The method, boiled down: as §1
Assay [16] relates to NCI-H1435 (Non-Small Cell Lung Carcinoma). The assay is described as above. The method, boiled down: as §1
Assay [17] relates to NCI-H1944 (Lung Adenocarcinoma). Described as above. Put shortly:
as §1

The test system of assay [18] is RPMI-8402 (T-Lymphoblastic Leukemia). The assay is described as above. The method, boiled down: as §1
Assay [19] relates to SK-MEL-24 (Melanoma). The assay is described as above. The method, boiled down: as §1
Assay [20] concerns TOV-21G (Ovarian Carcinoma). Described as above. The method, boiled down: as §1
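Wherever Bliss excess, mean over the matrix is given: after 72 h of two-drug dosing.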

In the case of `CN(CCO)CC[C@H](CSc1ccccc1)Nc1ccc(S(=O)(=O)NC(=O)c2ccc(N3CCC([C@@H](O)c4ccccc4-c4ccc(Cl)cc4)CC3)cc2)cc1S(=O)(=O)C(F)(F)F` [AZD4320] + C[C@@H]1COCCN1C2=NC(=NC(=C2)C3(CC3)[S@](=N)(=O)C)C4=C5C=CNC5=NC=C4 [AZD6738] (first compound max 1 µM, 7x7, partner max 10 µM), the Bliss excess in assay [1] is -0.0048; in assay [2] it was 0.0264; in assay [3], -0.0385; in assay [4], -0.0353; in assay [5], -0.0278; in assay [6], -0.0762. Besides, the Bliss excess in assay [7] was 0.0366; in assay [8], -0.0478; in assay [9] it was -0.0301; in assay [10], 0.0051; in [11], 0.026; in [12], 0.019. In assay [13], the Bliss excess was found to be 0.0338. For the same molecule, the “combination Emax” value came to 0.901 in [14]; 0.65 in assay [15]; 0.852 in assay [16]; 0.993 in assay [17]; 1 in assay [18]; 0.556 in assay [19]. In [20], the “combination Emax” value was 0.824.

`NC1(C(=O)N[C@@H](CCO)c2ccc(Cl)cc2)CCN(c2ncnc3[nH]ccc23)CC1` [Capivasertib] + Cn1cnc2c(F)c(Nc3ccc(Br)cc3Cl)c(C(=O)NOCCO)cc21 [Selumetinib] (first compound max 10 µM, 7x7, partner max 10 µM): the Bliss excess was -0.0429 in assay [1]; -0.0245 in assay [2]; 0.0042 in [3]; -0.0493 in [4]; 0.0263 in [5]; -0.0011 in assay [6]. The Bliss excess in [7] is 0.0234; in [8] it was 0.0047; in [9], 0.0064; in assay [10], 0.0825; in assay [11], -0.016; in assay [12], 0.0331. Moreover, the Bliss excess in assay [13] was -0.0189. Moreover, the “combination Emax” value amounted to 0.829 in assay [14]; 0.212 in assay [15]; 0.244 in [16]; 0.738 in [17]; 0.633 in [18]; 0.856 in [19]. Further, the “combination Emax” value in assay [20] was 0.876.

As for `NC1(C(=O)N[C@@H](CCO)c2ccc(Cl)cc2)CCN(c2ncnc3[nH]ccc23)CC1` [Capivasertib] + COc1nnc2ccc(N3CCC(c4ccc(OCCN5CCN(C)C(=O)[C@H]5C)cc4)CC3)nn12 [AZD5153] (first compound max 10 µM, 7x7, partner max 1 µM), the Bliss excess in assay [1] is 0.0009; in assay [2] it was -0.0265; in assay [3], 0.0653; in [4], -0.0221; in [5], 0.0101; in assay [6], -0.0237. The Bliss excess in [7] is -0.025; in [8] it was 0.0383; in assay [9], -0.0097; in assay [10], -0.0026; in assay [11], 0.089; in assay [12] it was 0.0079. Further, in [13], the Bliss excess was 0.012. In addition, the “combination Emax” value in assay [14] was found to be 0.977; in assay [15], 0.793; in assay [16], 0.248; in assay [17], 0.842; in [18] it was 0.991; in assay [19], 0.885. The “combination Emax” value in assay [20] was 0.892.

Take `COc1cccc(OCCCN)c1-c1cc(Nc2cnc(C#N)cn2)n[nH]1` [Prexasertib] + CCc1c2c(nc3ccc(O)cc13)-c1cc3c(c(=O)n1C2)COC(=O)[C@]3(O)CC [SN-38] (first compound max 1 µM, 7x7, partner max 0.3 µM): the Bliss excess was 0.0699 in [1]; -0.0379 in assay [2]; -0.0236 in assay [3]; -0.0131 in assay [4]; -0.0109 in [5]; -0.0315 in [6]. Also, the Bliss excess in [7] was 0.0171; in [8], -0.0326; in assay [9], 0.0728; in assay [10], -0.0042; in assay [11], 0.0066; in assay [12], 0.127. Further, the Bliss excess in assay [13] came to 0.0138. Moreover, the “combination Emax” value amounted to 0.997 in assay [14]; 0.987 in [15]; 0.481 in assay [16]; 0.857 in assay [17]; 1 in assay [18]; 0.837 in assay [19]. Besides, the “combination Emax” value in assay [20] amounted to 0.852.

Take `NC1(C(=O)N[C@@H](CCO)c2ccc(Cl)cc2)CCN(c2ncnc3[nH]ccc23)CC1` [Capivasertib] + CCN(CCO)CCCOc1ccc2c(Nc3cc(CC(=O)Nc4cccc(F)c4)[nH]n3)ncnc2c1 [AZD2811] (first compound max 10 µM, 7x7, partner max 1 µM): the Bliss excess in assay [1] was -0.0241; in assay [2], -0.0578; in [3] it was -0.0195; in assay [4] it was -0.0632; in [5], 0.0026; in assay [6], -0.0295. Further, the Bliss excess in assay [7] is -0.0384; in assay [8] it was 0.0135; in assay [9], 0.0106; in assay [10] it was 0.066; in assay [11] it was -0.0504; in assay [12], 0.0332. Moreover, the Bliss excess in assay [13] came out at 0.0103. Also, the “combination Emax” value in [14] was found to be 0.872; in assay [15], 0.806; in assay [16], 0.248; in assay [17] it was 0.628; in assay [18], 0.939; in assay [19], 0.626. Also, the “combination Emax” value in [20] was determined as 0.794.

Values taken from the supplement of paper PMC11061612.
